Assays:
ATF4 expression = assay: Stress-sensitive ATF4 luciferase reporter transfection assay (pNL1.1-mATF4) in U373 cells; format: cell-based, human; details: 15 μM compound added with 3 nM thapsigargin for 16 hours
Protocol: FIG. 9. […] ATF4 expression was assessed with a luciferase reporter construct under regulation of the murine Atf4 promoter and 5′ non-coding region. Cells were transfected as described. The ISR was induced by administration of 3 nM thapsigargin (TG) to the cell culture medium. […] Guanfacin (Gf), an a2 adrenergic receptor agonist without reported GADD34 modulating activity, was included in parallel as negative control. […] Statistical analyses were performed for individual compounds with a paired t-test (*, p<0.05, **, p<0.01).
The a2 adrenergic receptor agonist Guanabenz (Gb) has been reported to also target GADD34 and thereby impact on a negative feedback loop of the ISR [16]. GADD34 promotes dephosphorylation of eIF2P. Gb is thought to inhibit GADD34, it is thereby though to increase and prolong eIF2a phosphorylation and consequently increases production of ATF4 and its regulated transcriptome. We tested the effect of Gb on ATF4 production in U373 cell lines using a stress-sensitive transfection assay. Transfections were performed with the pNL1.1-mATF4 reporter construct, in which expression of the reporter gene is controlled by ISR-responsive sequences. Expression from the reporter construct was measured 2 days after transfection with a commercially available chemiluminescent assay and can be directly interpreted as a measure for ATF4 expression.
ATF4 expression was investigated in the absence or presence of ISR activation. […] Gb was added together with thapsigargin to the culture medium to test the effect of Gb on ATF4 expression. […] The eIF2B-enhancing compound ISRIB was included as positive control for ATF4-regulation.

2b5^ho mice [1] = assay: Western blot for myelin proteins MBP and MOG after Guanabenz treatment; format: in vivo, mouse; details: Guanabenz vs saline, n=2
Protocol: To test the effect of Guanabenz, 11 female 2b5^ho littermates were injected with saline (n=5) or Guanabenz (10 mg/kg; n=6) i.p. every week from 2 months until 10 months of age. Animals were randomly assigned to the Guanabenz or saline group, and single animals were taken as experimental units. At 11 months of age all mice were sacrificed and the brains were used for analysis. The brains of 3 saline- and 4 Guanabenz-injected animals were perfused as described and used for immunostaining and in situ hybridization. The brains of 2 saline- and 2 Guanabenz-injected animals were snapfrozen in liquid nitrogen and used for western blot analysis. No animals were excluded from any analysis.
Half of the forebrain and the whole cerebellum of 2 saline- and 2 Guanabenz-treated animals were separately used for western blot analysis. Forebrains were lysed in lysis buffer (50 mM Hepes, 150 mM NaCl, 1 mM EDTA, 2.5 mM ethylene glycol-bis(β-aminoethyl-ether)-N,N,N′,N′-tetraacetic acid, 0.1% Triton-X100, 10% glycerol, 1 mM dithiothreitol) supplemented with protease inhibitor cocktail (ThermoFisher Scientific) using a dounce tissue grinder (Sigma-Aldrich). […] Supernatants were collected and protein concentrations were measured with a Bradford assay. […] Secondary antibodies were raised against mouse or rabbit and conjugated with horseradish peroxidase. Blots were developed with SuperSignal™ West Femto Maximum Sensitivity Substrate (ThermoFisher Scientific) and measured in an Odyssey® Fc Imaging System (LI-COR Inc). Intensity of bands was quantified with ImageJ software and corrected for total amount of protein.

[2] = system: mRNAs encoding ATF4 and ATF4-regulated targets CHOP and TRIB3; assay: ISR marker mRNA levels in brain tissue (qPCR) after one Gb injection; format: in vivo, mouse; details: one dose 10 mg/kg i.p., vs saline
Protocol: (§1) FIG. 10. […] Statistical analysis was performed with two-way ANOVA (*, p<0.05, **, p<0.01, ***, p<0.001).
(§2) As (unpublished) part of this study, we investigated the effect of Gb on the expression of ATF4 and its regulated transcriptome in mice. […] In short, we injected one dose of 10 mg/kg Gb intraperitoneally into four wildtype (wt) and four 2b5ho mice. Saline-injected wt and 2b5ho mice were used as negative controls for measuring Gb effects on ISR markers. […] Organs were removed, snap frozen in liquid nitrogen and stored at −80° C. Tissue samples for RNA and protein analyses were prepared as described. In postmortem brain tissue we measured levels of phosphorylated eIF2a with Western blot and levels of mRNAs encoding ATF4 and ATF4-regulated targets CHOP and TRIB3 with qPCR.

eIF2a phosphorylation = eIF2a phosphorylation in brain tissue (Western blot) after one Gb injection; format: in vivo, mouse; details: wt and 2b5ho mice, one dose 10 mg/kg i.p., vs saline
Protocol: as §1, §2

2b5^ho mice [3] = assay: Nestin cell count in corpus callosum after Guanabenz treatment of VWM mice; format: in vivo, mouse; details: Guanabenz i.p. weekly from 2 to 10 months of age, analysed at 11 months, vs saline, p=0.289, not significant
Protocol: (§3) Tissue sections of 11 WT and 10 2b5^ho (carrying a homozygous Arg191His mutation in the Eif2b5 gene [7]) animals of 2, 5 or 7 months of age were collected after intracardiac perfusion with 4% paraformaldehyde (PFA). The brains were postfixed in 4% PFA for 1-2 days, after which half of the brain was embedded in paraffin and the other half was incubated overnight in 30% sucrose and snapfrozen in optimum cutting temperature compound (Sakura). […] To test the effect of Guanabenz, 11 female 2b5^ho littermates were injected with saline (n=5) or Guanabenz (10 mg/kg; n=6) i.p. every week from 2 months until 10 months of age. Animals were randomly assigned to the Guanabenz or saline group, and single animals were taken as experimental units. At 11 months of age all mice were sacrificed and the brains were used for analysis. The brains of 3 saline- and 4 Guanabenz-injected animals were perfused as described and used for immunostaining and in situ hybridization. […]
(§4) Mouse tissue was processed for immunostaining as previously described [7]. […] Stainings were analyzed with a LeicaDM6000B microscope (Leica Microsystems). […]
Astrocytes double-positive for nestin and GFAP were counted in the splenium and rostrum of the corpus callosum, on 100× magnification pictures. Total cell number was determined by counting the DAPI-positive nuclei. For each animal, at least 3 slices were stained and counted. […]

[4] = in vivo; cited from earlier work
2b5^ho mice [5] = assay: In situ hybridization for Plp-expressing cells after Guanabenz treatment; format: in vivo, mouse; details: Guanabenz i.p. weekly 2-10 months, forebrain (corpus callosum) and cerebellum, vs saline
Protocol: as §3
In situ hybridization targeting proteolipid protein (Plp) mRNA was performed on PFA-fixed snapfrozen tissue as previously described [7, 25]. […] The number of Plp-positive cells was analyzed in the rostrum and splenium of the corpus callosum, and in the white matter of the cerebellum. For each area 3 different pictures were taken with a 100× objective lens and cells were counted in a 100×200 μm square.

2b5^ho mice [6] = assay: Analysis of Bergmann glia translocation (S100ß/GFAP staining) after Guanabenz treatment; format: in vivo, mouse
Protocol: Tissue sections of 11 WT and 10 2b5^ho (carrying a homozygous Arg191His mutation in the Eif2b5 gene [7]) animals of 2, 5 or 7 months of age were collected after intracardiac perfusion with 4% paraformaldehyde (PFA). The brains were postfixed in 4% PFA for 1-2 days, after which half of the brain was embedded in paraffin and the other half was incubated overnight in 30% sucrose and snapfrozen in optimum cutting temperature compound (Sakura). […] To test the effect of Guanabenz, 11 female 2b5^ho littermates were injected with saline (n=5) or Guanabenz (10 mg/kg; n=6) i.p. every week from 2 months until 10 months of age. Animals were randomly assigned to the Guanabenz or saline group, and single animals were taken as experimental units. At 11 months of age all mice were sacrificed and the brains were used for analysis. […]
as §4
Bergmann glia pathology was analyzed in S100ß-stained sections. […] All the S100-positive cell bodies inside this band were counted and considered correctly localized. The S100ß-positive cell bodies located outside the band in the molecular layer were counted and considered as translocated Bergmann glia. The amount of translocated cell bodies was expressed as a ratio to the total number of S100ß-positive cell bodies counted.

SMILES | ATF4 expression under stress (ATF4 expression) | amount of MBP protein, cerebellum (2b5^ho mice [1]) | amount of MOG protein, cerebellum (2b5^ho mice [1]) | amount of MOG protein, forebrain (2b5^ho mice [1]) | Atf4 mRNA levels in brain tissue, 2b5ho mice ([2]; 4 and 24 hours) | Ddit3 mRNA expression in brain tissue, 2b5ho mice ([2]; 4 and 24 hours) | Trib3 mRNA expression in brain tissue, 2b5ho mice ([2]; 4 and 24 hours, not significant at 4 hours) | Atf4 mRNA expression level in brain tissue, wt mice ([2]; n=2) | levels of eIF2a phosphorylation in brain tissue, 4 hours after injection (eIF2a phosphorylation) | levels of eIF2a phosphorylation in brain tissue, 24 hours after injection (eIF2a phosphorylation) | average decrease of number of nestin-positive cells in the corpus callosum (2b5^ho mice [3]) | half-life in blood/tissue [4] | number of Plp-expressing cells (2b5^ho mice [5]) | GFAP expression and Bergmann glia morphology (2b5^ho mice [6]; Guanabenz i.p. weekly 2-10 months, cerebellum) | decrease of number of translocated Bergmann glia cell bodies (2b5^ho mice [6]; Guanabenz i.p. weekly from 2 to 10 months of age, analysed at 11 months, vs saline, p=0.032, reached numbers of untreated WT)
NC(N)=N/N=C/c1c(Cl)cccc1Cl [Guanabenz, guanabenz] | increased | increased | increased | increased | transient decrease | reduced at both time points | reduced at both time points | unaffected | lower than in saline-injected animals | normalized | 27% | approximately 6 hours | slightly increased in the forebrain and cerebellum, though not significantly | decreased GFAP expression and a normalization of Bergmann glia morphology | 30%
O=C(COc1ccc(Cl)cc1)NC1CCC(NC(=O)COc2ccc(Cl)cc2)CC1 (centres unmarked) [ISRIB] | reduced | – | – | – | – | – | – | – | – | – | – | – | – | – | –
N=C(N)NC(=O)Cc1c(Cl)cccc1Cl [Guanfacine, guanfacine] | small, variable and not statistically significant | – | – | – | – | – | – | – | – | – | – | – | – | – | –

— patent US11382920B2, “Therapeutic effects of Guanabenz treatment in vanishing white matter” (Stichting VUmc, priority 2017, dated 2022)
